Measured values published in patent publication US4734406A, “3-pyridylmethylnaphthyl derivatives and composition containing them useful to inhibit thromboxane synthetase” (priority 1985, dated 1988).
Where a name gives a salt, the structure may show the parent alone.

Key:
[1] = system: TXA2 release in platelet-rich human plasma; assay: Thrombin-induced TXA2 release in platelet-rich human plasma in vitro (TXB2 radioimmunoassay); type: cell-based; details: 0.5 h, relative TXB2 content, without test substance = 100%, 0.5 U thrombin + 7.2×10^-7 M arachidonic acid; for activity at 1 µM: 10^-6 mol/l test substance; for activity at 0.1 µM: 10^-7 mol/l test substance
Protocol: 2. Thrombin-induced TXA2 release in platelet-rich human plasma in vitro Blood is taken, by careful cannulation of the antecubital vein, from apparently healthy male and female volunteers, who have taken no medicaments in the preceding 10-day period, and is immediately stabilized with sodium citrate (ad. 0.38%). Platelet-rich plasma (PRP) is obtained in the supernatant by centrifugation at 140×g for 15 minutes, and the platelet content of this should be in the range 2.5-3.5×10^8 /ml. […] This is stopped in an ice bath and, after addition of tracer and TXB2 -specific antibodies (NEN, Dreieich), the TXB2 content is determined radioimmunologically (TXA2 is unstable under the experimental conditions and thus cannot be measured. The stable hydrolysis product TXB2 is measured in its place). The measured variable is the relative TXB2 content in the platelet incubations from two or three different donors with and without (=100%) the test substance.

[2] = system: Laser-induced thrombosis; assay: Inhibition of Laser-induced thrombosis; type: in vivo, Sprague-Dawley rats; details: 10 mg/kg p.o., one hour before start; mesentery arterioles, rat
Protocol: 3. Inhibition of Laser-induced thrombosis
The investigations of the compounds according to the invention in the model of Laser-induced thrombosis are carried out on male or female Sprague-Dawley rats with a body weight of about 200 g. The animals to be investigated are premedicated s.c. with 0.1 mg of atropine sulfate in solution, and anesthetized i.p. with 100 mg of ketamine hydrochloride and 4 mg of xylazine per kg of body weight. Arterioles from the mesentry, with a diameter of 12-25 μm, are used for the investigation. During the measurement, the exposed mesentry is hyperfused with warmed physiological NaCl (37° C.) or is covered with degassed liquid paraffin. The beam of a 4 W argon laser (supplied by Spectra Physics, Darmstadt, FRG) is introduced coaxially into the inverted ray path of a microscope (ICM 405, LD-Epilan 40/0.60; supplied by Zeiss, Oberkochen, FRG) by means of a ray adaptation and adjustment system (supplied by BIG, Munich, FRG). […]
The number of shots needed to induce a defined thrombus was counted. The frequency of the laser flashes was one lesion every 2 minutes, all the thrombi with a minimum size of 1/4 of the vessel radius which were formed during the observation period being counted and measured. The results of the experiment were statistically analyzed using the x^2 test (L. Cavalli-Sforza, Biometrie, Stuttgart, 1969, pages 49 et seq.).

[3] = system: human platelets; assay: Inhibition of the arachidonic acid-induced aggregation of human platelets in vitro; type: cell-based; details: Platelet, PRP, 10 min preincubation at 37° C., 2×10^-4 M arachidonic acid
Protocol: 1. Inhibition of the arachidonic acid-induced aggregation of human platelets in vitro.
The platelet aggregation is followed optically by measurement of the transmission of light in a Born aggregometer. The total volume of the test mix is 0.25 ml. The preincubation time at 37° C. with the test product is 10 min, and aggregation is then induced with 2×10^-4 M arachidonic acid. The test product is, as a rule, tested in five different concentrations in the PRP from three different donors. Dose-effect curves are drawn from the maximal aggregation amplitudes in each case, and the IC50 values are determined graphically. […] The measurements are carried out in the period 1-6 hours after blood sampling.

Row | SMILES | activity at 1 µM [1] [%] | activity at 0.1 µM [1] [%] | Number of laser shots to form a thrombus (compared with control) [2] | IC50 [3] [µM]
1 | Cc1ccncc1C(O)c1ccc2cc(C(=O)O)ccc2c1.Cl (stereo not shown) [Example 8, 6-[1-Hydroxy-1-(4-methyl-3-pyridyl)methyl]-2-naphthoic acid hydrochloride] | 13 | 88 | +56% | 6.3
2 | O=C(O)c1ccc2cc(C(O)c3cccnc3)ccc2c1 (stereo not shown) [Example 9, hydrochloride of 6-[1-hydroxy-1-(3-pyridyl)methyl]-2-naphthoic acid] | 21 | 64 |  | 1.7
